Measurements published in patent US11912665B1, “4-(2,4,5-tris(4-chlorophenyl)-1H-imidazol-1-yl)butanoic acid as an antimicrobial compound” (KING FAISAL UNIVERSITY, priority 2023, dated 2024).

Columns and labels:
Type in all cases: cell-based
[1] = tested on: Chrysosporium keratinophilum; test: agar plate disc-diffusion, antifungal activity; settings: Sabouraud's dextrose agar, 72 hours, DMSO zone subtracted; for inhibition zone Chrysosporium keratinophilum A: A = concentration of comp. = 10,000 μL; for inhibition zone Chrysosporium keratinophilum B: B = concentration of comp. = 30,000 μL; for inhibition zone Chrysosporium keratinophilum C: C = concentration of comp. = 50,000 μL
Method: (§1) The agar plate disc-diffusion method was applied. […] The discs were then placed onto the surface of agar plates (nutrient agar for bacteria and Sabouraud's dextrose agar for fungi) seeded with the test organism. Each plate contained 15 mL of the agar medium, previously seeded with 0.2 mL of the broth culture of each organism pregrown for 18 hours. The plates were incubated at 37° C. for 48 hours, and 72 hours for fungi. The inhibition zones were measured in millimeters (mm). Discs impregnated with DMSO were used as a control, and its inhibition zone was subtracted from the tested compound actual inhibition zone.

Aspergillus flavus = test: agar plate disc-diffusion, antifungal activity; settings: Sabouraud's dextrose agar, 72 hours, DMSO zone subtracted; for inhibition zone Aspergillus flavus A: A = concentration of comp. = 10,000 μL; for inhibition zone Aspergillus flavus B: B = concentration of comp. = 30,000 μL; for inhibition zone Aspergillus flavus C: C = concentration of comp. = 50,000 μL
Method: as §1

Staphylococcus aureus = test: agar plate disc-diffusion, antibacterial activity; settings: nutrient agar, 37° C., 48 hours, DMSO zone subtracted; for inhibition zone Staphylococcus aureus A: A = concentration of comp. = 10,000 μL; for inhibition zone Staphylococcus aureus B: B = concentration of comp. = 30,000 μL; for inhibition zone Staphylococcus aureus C: C = concentration of comp. = 50,000 μL
Method: as §1

Bacillus cereus = test: agar plate disc-diffusion, antibacterial activity; settings: nutrient agar, 37° C., 48 hours, DMSO zone subtracted; for inhibition zone Bacillus Cereus B: B = concentration of comp. = 30,000 μL; for inhibition zone Bacillus Cereus C: C = concentration of comp. = 50,000 μL
Method: as §1

Pseudomonas aeruginosa = test: agar plate disc-diffusion, antibacterial activity; settings: nutrient agar, 37° C., 48 hours, DMSO zone subtracted; for inhibition zone Pseudomonas aeruginosa A: A = concentration of comp. = 10 mg/mL; for inhibition zone Pseudomonas aeruginosa B: B = concentration of comp. = 30,000 μL; for inhibition zone Pseudomonas aeruginosa C: C = concentration of comp. = 50,000 μL
Method: (§2) The agar plate disc-diffusion method was applied. Sterilized filter papers (6 mm in diameter) were wetted with 10 μL of a solution of 4-(2,4,5-tris(4-chlorophenyl)-1H-imidazol-1-yl)butanoic acid (V) to be tested, containing 10 mg/mL in DMSO, and the discs were allowed to air dry. The discs were then placed onto the surface of agar plates (nutrient agar for bacteria and Sabouraud's dextrose agar for fungi) seeded with the test organism. Each plate contained 15 mL of the agar medium, previously seeded with 0.2 mL of the broth culture of each organism pregrown for 18 hours. The plates were incubated at 37° C. for 48 hours, and 72 hours for fungi. The inhibition zones were measured in millimeters (mm). Discs impregnated with DMSO were used as a control, and its inhibition zone was subtracted from the tested compound actual inhibition zone.

Escherichia coli = test: agar plate disc-diffusion, antibacterial activity; settings: nutrient agar, 37° C., 48 hours, DMSO zone subtracted; for inhibition zone Escherichia coli A: A = concentration of comp. = 10,000 μL; for inhibition zone Escherichia coli B: B = concentration of comp. = 30,000 μL; for inhibition zone Escherichia coli C: C = concentration of comp. = 50,000 μL
Method: as §2

For `O=C(O)CCCn1c(-c2ccc(Cl)cc2)nc(-c2ccc(Cl)cc2)c1-c1ccc(Cl)cc1` [V, 4-(2,4,5-tris(4-chlorophenyl)-1H-imidazol-1-yl)butanoic acid], the “inhibition zone Chrysosporium keratinophilum A” value [1] was 25 mm, the “inhibition zone Chrysosporium keratinophilum B” value [1] was 28 mm and the “inhibition zone Chrysosporium keratinophilum C” value [1] was 49 mm. The “inhibition zone Aspergillus flavus A” value (Aspergillus flavus) was 16 mm, the “inhibition zone Aspergillus flavus B” value (Aspergillus flavus) was 22 mm and the “inhibition zone Aspergillus flavus C” value (Aspergillus flavus) was 36 mm. For the same compound, the “inhibition zone Staphylococcus aureus A” value (Staphylococcus aureus) was 14 mm, the “inhibition zone Staphylococcus aureus B” value (Staphylococcus aureus) was 19 mm and the “inhibition zone Staphylococcus aureus C” value (Staphylococcus aureus) was 26 mm. The “inhibition zone Bacillus Cereus A” value (Bacillus cereus) was 19 mm, the “inhibition zone Bacillus Cereus B” value (Bacillus cereus) was 25 mm and the “inhibition zone Bacillus Cereus C” value (Bacillus cereus) was 40 mm. For the same compound, the “inhibition zone Pseudomonas aeruginosa A” value (Pseudomonas aeruginosa) was 26 mm, the “inhibition zone Pseudomonas aeruginosa B” value (Pseudomonas aeruginosa) was 31 mm and the “inhibition zone Pseudomonas aeruginosa C” value (Pseudomonas aeruginosa) was 46 mm. The “inhibition zone Escherichia coli A” value (Escherichia coli) was 24 mm, the “inhibition zone Escherichia coli B” value (Escherichia coli) was 35 mm and the “inhibition zone Escherichia coli C” value (Escherichia coli) was 51 mm.
With `O=C(O)c1cn(C2CC2)c2cc(N3CCNCC3)c(F)cc2c1=O` [Cip., ciprofloxacin] the “inhibition zone Chrysosporium keratinophilum A” value [1] was 29 mm, the “inhibition zone Chrysosporium keratinophilum B” value [1] was 30 mm and the “inhibition zone Chrysosporium keratinophilum C” value [1] was 53 mm. For the same compound, the “inhibition zone Aspergillus flavus A” value (Aspergillus flavus) was 29 mm, the “inhibition zone Aspergillus flavus B” value (Aspergillus flavus) was 30 mm and the “inhibition zone Aspergillus flavus C” value (Aspergillus flavus) was 42 mm. For the same compound, the “inhibition zone Staphylococcus aureus A” value (Staphylococcus aureus) was 42 mm, the “inhibition zone Staphylococcus aureus B” value (Staphylococcus aureus) was 44 mm and the “inhibition zone Staphylococcus aureus C” value (Staphylococcus aureus) was 53 mm. The “inhibition zone Bacillus Cereus A” value (Bacillus cereus) was 29 mm, the “inhibition zone Bacillus Cereus B” value (Bacillus cereus) was 31 mm and the “inhibition zone Bacillus Cereus C” value (Bacillus cereus) was 42 mm. The “inhibition zone Pseudomonas aeruginosa A” value (Pseudomonas aeruginosa) was 29 mm, the “inhibition zone Pseudomonas aeruginosa B” value (Pseudomonas aeruginosa) was 30 mm and the “inhibition zone Pseudomonas aeruginosa C” value (Pseudomonas aeruginosa) was 53 mm. The “inhibition zone Escherichia coli A” value (Escherichia coli) was 30 mm, the “inhibition zone Escherichia coli B” value (Escherichia coli) was 39 mm and the “inhibition zone Escherichia coli C” value (Escherichia coli) was 60 mm.
